Values after ≈ are worked out from the molar mass of the structure shown.
Columns and labels:
S. aureus = test: MIC, agar dilution, multipoint inoculator; assay type: cell-based, Staphylococcus aureus; settings: upper value of MIC reading
Experimental: (§1) This activity was measured using a multipoint inoculator method as follows. The MIC for each compound was measured using an agar dilution method (Onda, H., et al., Int. J. Antimicrob. Agents. 18, 263 (2001)) (Mueller Hinton agar) by means of a multipoint inoculator delivering 10^4 colony forming units per spot.

MRSA = test: MIC, agar dilution, multipoint inoculator; assay type: cell-based, methicillin-resistant Staphylococcus aureus; settings: for MIC: upper value of MIC reading, in µg/mL; for MRSA MIC range: panel of ten MRSA strains (clinical isolates)
Experimental: as §1
‘Staph’ refers to the reference strain of S. aureus (NCTC 6571). A tick in the MRSA column refers to a positive zone against MRSA strain 96-7474, and the MIC range (in μg/ml) which follows is that found against a panel of ten MRSA strains. Where MIC values are given for MRSA, these are stated as a range of values, as testing was carried out on a panel of clinical isolates.

S. epidemisis = test: MIC, agar dilution, multipoint inoculator; assay type: cell-based, Staphylococcus epidermidis; settings: upper value of MIC reading
Experimental: as §1

E. faecalis = test: MIC, agar dilution, multipoint inoculator; assay type: cell-based; settings: upper value of MIC reading
Experimental: as §1

S. haemolyticus = test: MIC, agar dilution, multipoint inoculator; assay type: cell-based; settings: S. haemolyticus Isolate 1; upper value of MIC reading
Experimental: as §1

S. maltophilia = test: MIC, agar dilution, multipoint inoculator; assay type: cell-based; settings: S. maltophilia NCTC 10257; upper value of MIC reading
Experimental: as §1

E. faecium = test: MIC, agar dilution, multipoint inoculator; assay type: cell-based, Enterococcus faecium; settings: upper value of MIC reading
Experimental: as §1

S. aboni = test: MIC, agar dilution, multipoint inoculator; assay type: cell-based; settings: S. aboni NCTC 6017; upper value of MIC reading
Experimental: as §1

[1] = tested on: human mononuclear leucocytes (MNL, white blood cells); test: direct leucocyte toxicity, tryptan blue exclusion, 18 hours; assay type: cell-based; settings: for % Leucocyte Death: human, 18 h
Experimental: The in vitro assay used human mononuclear leucocytes (MNL, white blood cells) which were incubated with the test compound for 18 hours and cell death determined by tryptan blue exclusion (tryptan blue is a dye, which stains dead cells, whilst living cells extrude it).
The toxicity of 4PYcq and the aldehyde cq and pyridine-4-carboxamidrazone precursors were assessed using the same in vitro assay with human mononuclear leucocytes as that described above. The toxicity of related compounds, 2-hydroxybenzylidene-pyridine-2-carboxamidrazone 4PYbw and benzylidenepyridine-2-carboxamidrazone 4PYaa were also examined.

Row | Structure (SMILES) | MIC (S. aureus; S. aureus Cowan 1) [µg/mL] | MIC (S. aureus; S. aureus NCTC 6571) [µg/mL] | MIC (MRSA; MRSA Isolate 1) | MIC (MRSA; MRSA Isolate 3) | MIC (MRSA; MRSA Isolate 4) | MIC (S. epidemisis; S. epidemisis Isolate 1) [µg/mL] | MIC (S. epidemisis; S. epidemisis NCTC 11047) [µg/mL] | MIC (E. faecalis; E. faecalis Isolate 2) [µg/mL] | MIC (S. haemolyticus) [µg/mL] | MIC (S. aureus; S. aureus NCTC 10788) [µg/mL] | MIC (MRSA; MRSA Isolate 2) | MIC (MRSA; MRSA Isolate 5) | MIC (MRSA; MRSA Isolate 6) | MIC (MRSA; MRSA Isolate 7) | MIC (MRSA; MRSA Isolate 8) | MIC (MRSA; MRSA Isolate 9) | MIC (MRSA; MRSA Isolate 10) | MRSA MIC range (MRSA) [µg/mL] | MIC (E. faecalis; E. faecalis Isolate 1) [µg/mL] | MIC (E. faecalis; E. faecalis NCTC 5957) [µg/mL] | also measured
1 | NC(=NN=Cc1c(O)ccc2ccccc12)c1ccncc1 [Compound 4PYdb] | 128 (≈ 441 µM) | > 256 | 128 | 256 | 256 | 128 (≈ 441 µM) | 128 (≈ 441 µM) | 256 (≈ 882 µM) | 128 (≈ 441 µM) | – | – | – | – | – | – | – | – | – | – | – | MIC (E. faecalis; E. faecalis Isolate 3): 256 µg/mL (≈ 882 µM); MIC (S. maltophilia): 128 µg/mL (≈ 441 µM)
2 | NC(=NN=Cc1cc(O)c(O)cc1O)c1cccnc1 [Compound 3PYcc] | 256 (≈ 940 µM) | 256 (≈ 940 µM) | 256 | 256 | 256 | – | 32 (≈ 118 µM) | 256 (≈ 940 µM) | – | 256 (≈ 940 µM) | 256 | 256 | 256 | 256 | 256 | 256 | 256 | 128 to 256 | 256 (≈ 940 µM) | 256 (≈ 940 µM) | MIC (E. faecium; E. faecium NCTC 7171): 256 µg/mL (≈ 940 µM); MIC (E. faecalis; E. faecalis Isolate 4): 256 µg/mL (≈ 940 µM); MIC (E. faecalis; E. faecalis Isolate 5): 128 µg/mL (≈ 470 µM); MIC (S. aboni): 256 µg/mL (≈ 940 µM)
3 | N=C(NN=Cc1ccccc1O)c1ccccn1 [Compound 4PYbw, 2-hydroxybenzylidene-pyridine-2-carboxamidrazone] | – | – | – | – | – | – | – | – | – | – | – | – | – | – | – | – | – | – | – | – | direct MNL toxicity (in words) [1]: only mildly toxic in comparison
4 | NC(=NN=Cc1cc(Br)cc([N+](=O)[O-])c1O)c1cccnc1 [Compound 3PYcl] | 64 (≈ 176 µM) | 32 (≈ 87.9 µM) | 64 | 64 | 32 | 256 (≈ 703 µM) | 256 (≈ 703 µM) | 128 (≈ 351 µM) | 128 (≈ 351 µM) | 32 (≈ 87.9 µM) | 64 | 32 | 64 | 64 | 64 | 64 | 64 | 16 to 64 | 128 (≈ 351 µM) | 128 (≈ 351 µM) | MIC (E. faecium; E. faecium ACTCC 10541): 128 µg/mL (≈ 351 µM); MIC (E. faecium; E. faecium NCTC 7171): 256 µg/mL (≈ 703 µM); MIC (E. faecalis; E. faecalis EBH1): 256 µg/mL (≈ 703 µM); MIC (E. faecalis; E. faecalis Isolate 4): 256 µg/mL (≈ 703 µM); MIC (E. faecalis; E. faecalis Isolate 5): 128 µg/mL (≈ 351 µM); MIC (S. aboni): 256 µg/mL (≈ 703 µM)
5 | NC(=NN=Cc1cc([N+](=O)[O-])ccc1O)c1cccnc1 [Compound 3PYcj] | 16 (≈ 56.1 µM) | 8 (≈ 28 µM) | 4 | 4 | 4 | 128 (≈ 449 µM) | 64 (≈ 224 µM) | 128 (≈ 449 µM) | – | 8 (≈ 28 µM) | 4 | 4 | 8 | 8 | 8 | 8 | 8 | 2 to 8 | 128 (≈ 449 µM) | 256 (≈ 897 µM) | MIC (S. aboni): 256 µg/mL (≈ 897 µM)
6 | CCC(C)(C)c1ccc(C=O)cc1 [af] | – | – | – | – | – | – | – | – | – | – | – | – | – | – | – | – | – | – | – | – | % Leucocyte Death ([1]; 1 mM): 5.5 ± 3.0%
7 | CC(C)(C)c1ccc(/C=N/N=C(\N)c2ccccn2)cc1 [Compound 2PYae] | – | – | – | – | – | – | – | – | – | – | – | – | – | – | – | – | – | – | – | – | direct MNL toxicity (in words) [1]: indistinguishable from the background levels; % Leucocyte Death ([1]; 0.1 mM): 1.1 ± 1.0%
8 | CN(C)CCCOc1ccc(C=NN=C(N)c2ccc3ccccc3n2)cc1 [QNds] | 128 (≈ 341 µM) | 128 (≈ 341 µM) | 64 | 64 | 64 | 256 (≈ 682 µM) | 256 (≈ 682 µM) | 128 (≈ 341 µM) | 256 (≈ 682 µM) | 128 (≈ 341 µM) | 64 | 64 | 64 | 64 | 64 | 64 | 64 | 32 to 128 | 128 (≈ 341 µM) | 64 (≈ 170 µM) | MIC (E. faecium; E. faecium ACTCC 10541): 128 µg/mL (≈ 341 µM); MIC (E. faecium; E. faecium NCTC 7171): 64 µg/mL (≈ 170 µM); MIC (E. faecalis; E. faecalis EBH1): 128 µg/mL (≈ 341 µM); MIC (E. faecalis; E. faecalis Isolate 3): 128 µg/mL (≈ 341 µM); MIC (E. faecalis; E. faecalis Isolate 4): 128 µg/mL (≈ 341 µM); MIC (E. faecalis; E. faecalis Isolate 5): 64 µg/mL (≈ 170 µM); MIC (S. maltophilia): 256 µg/mL (≈ 682 µM)
